Patent US7425579B2, “Methods for inhibiting activity of polyamine transporters” (Universite Laval, priority 1998, dated 2008)

Key:
CHO-MG cells = assay: Potentiation of DFMO-induced cytostasis in polyamine transport-deficient CHO-MG cells; assay type: cell-based, Chinese hamster; details: 2 mM DFMO; 4 d; polyamine transport mutant
Protocol: FIGS. 9A and 9B are graphs showing that potentiation of DFMO-induced cytostasis by a compound used in a method according to a preferred embodiment of the invention requires a functional polyamine transport system. In particular, CHO-TOR cells (A) and their polyamine transport-deficient mutant subline CHO-MG (B) were grown in medium containing 1 mM aminoguanidine and the indicated concentration of spermidine, in the presence of 2 mM DFMO (●), BNSD-X (□), DFMO+BNSD-X (▪), or vehicle only (∘). Cells were harvested after 4 d for determination of total DNA/well. Data are presented as the mean±SD for triplicate cultures from one representative experiment;
To determine the ability of polyamine transport antagonists to potentiate DFMO-induced inhibition of cell proliferation in the presence of exogenous polyamines, cells were grown for the indicated period in growth medium supplemented with 1 mM aminoguanidine, and either DFMO (1 to 5 mM), the indicated transport inhibitor (50 or 100 μM), or the combination thereof, as well as increasing concentrations of spermidine (0.1 to 300 μM). Fresh medium was added every other day, and cell mass was determined at various time points during the period of exponential growth, or at the end of the experimental period. […]

[1] = tested on: MDA-MB-231 human breast cancer xenograft; assay: MDA-MB-231 human breast cancer xenograft in nude mice; assay type: in vivo, immunodeficient CD-1 mice
Protocol: (§1) In particular, the mice have been treated with the following compounds: BNSD-X (1% w/v) (●), 0.3 (w/v) DFMO (□), 0.3% DFMO+BNSD-X (▪), 1% (w/v) DFMO (Δ), or 1% DFMO+BNSD-X (▴). Drugs were dissolved in drinking water which was given ad libitum to the animals. Control mice (∘) received distilled water only;
as §1, with “only; and” for “only;”
In particular, these compounds are BNSD-X (1% w/v), 0.3 (w/v) DFMO, 0.3% DFMO+BNSD-X, 1% (w/v) DFMO, or 1% DFMO+BNSD-X Drugs were dissolved in drinking water which was given ad libitum to the animals. Control mice received distilled water only.
For human xenograft experiments, athymic CD-1 mice were inoculated with 5×10^6 MDA-MB-231 human breast cancer cells (grown in tissue culture incubators to mid-exponential phase) in both sides of the inguinal mammary fat pad. After ˜2 weeks, when the tumor had reached a diameter ˜4 mm (as measured with a caliper), control mice were paired to treated ones in accordance with tumor volume (time zero). Animals were allowed free access to water containing 0, 0.3 or 1% DFMO (w/v), plus or minus 1% (w/v) BNSD-X (7 mice/experimental group). Tumor volume (V) was measured twice weekly with a caliper in 2 dimensions using the approximation V=(L×w^2)/2, where L is the length and w is the width of the xenograft (Bandyopadhyay et al., (2002) Cancer Res. 62:4690-4695). Animals were sacrificed after 39 d (i.e. when tumor size in control mice had reached about 500 mm^3). Mammary tumors were be excised and weighed.
The efficacy of BNSD-X as a chemotherapeutic agent was assessed in the MDA-MB-231 model of human breast cancer xenograft in the nude mouse, a model which is known to be sensitive to polyamine depletion by DFMO (Weeks et al., (2000) Exp Cell Res. 261:293-302). For that purpose, MDA-MB-231 cells were injected in the left and right mammary fat pads of immunodeficient CD-1 mice. Mice were then allowed to drink either BNSD-X at the optimal concentration (1%, w/v), as well as DFMO at either 0.3% or 1% (w/v) plus or minus 1% BNSD-X for 39 days before sacrificing the animals and measuring total final tumor mass (FIG. 12-14). The BNSD-X solution alone or with 0.3% DFMO led to a slight (˜7%) reduction of body weight, which was attenuated by the addition of 1% DFMO (FIG. 13) However, this effect of body weight could largely be accounted on the decreased tumor burden in the BNSD-X treated animals (FIG. 14). […]

[2] = Plasma level of BNSD-X after gavage; assay type: in vivo, mice; details: solid BNSD-X, 1 g/kg body weight by gavage
[3] = tested on: CHO-K1, Jurkat, L1210, MDA-MB-231, ZR-75-1 and MCF-7 cells; assay: Reversal of DFMO-induced cytostasis by exogenous spermidine in a variety of mammalian cell lines; assay type: cell-based; details: 50-100 μM BNSD-X
Protocol: FIGS. 5A, 5B, 5C, 5D, 5E and 5F are graphs representing that a compound used in a method according to a preferred embodiment antagonizes rescue of DFMO-induced cytostasis by exogenous spermidine. In particular, CHO-K1 (A), Jurkat (B), L1210 (C), MDA-MB-231 (D), ZR-75-1 (E) and MCF-7 cells (F) were grown to near confluency or saturation (for 4 to 11 d according to the cell line considered) with the indicated concentrations of spermidine in medium containing 1 mM aminoguanidine, in the presence of DFMO (●), BNSD-X (□), DFMO plus BNSD-X (▪), or in the absence of either agent (∘), and total DNA content per culture was then determined. The optimal concentration of either DFMO (1 to 5 mM) or BNSD-X (50 or 100 μM) was used for the each cell line as determined in pilot experiments. Data are presented as the mean±SD for triplicate cultures from one out of at least three identical experiments for each cell line;
To determine the ability of polyamine transport antagonists to potentiate DFMO-induced inhibition of cell proliferation in the presence of exogenous polyamines, cells were grown for the indicated period in growth medium supplemented with 1 mM aminoguanidine, and either DFMO (1 to 5 mM), the indicated transport inhibitor (50 or 100 μM), or the combination thereof, as well as increasing concentrations of spermidine (0.1 to 300 μM). Fresh medium was added every other day, and cell mass was determined at various time points during the period of exponential growth, or at the end of the experimental period. For the latter experiments, the FBS supplement was replaced with dextran-coated charcoal-treated FBS (5%, v/v) plus 0.5 μg/ml insulin in the case of T-47D, ZR-75-1 and MCF-7 cells (U.S. Pat. No. 6,083,496).

## NCCCN(CCCN)Cc1ccc(CN(CCCN)CCCN)cc1 [28a, N,N,N′,N′-tetrakis-(3-aminopropyl)-p-diaminoxylene]
CHO-MG cells
  potentiation of DFMO-induced cytostasis in the absence of exogenous spermidine, CHO-MG: not in the polyamine transport mutant
[1]; 1% (w/v) BNSD-X alone in drinking water
  reduction of body weight: ~7%
[1]; 1% (w/v) BNSD-X as a single agent, 39-d treatment
  decrease of total tumor mass: 65±10%
[2]
  plasma half-life: > 6 h
[2]; after 1 h, n=5
  plasma concentration after gavage: 450 ± 71 nM
[3]; DFMO 1 to 5 mM
  increase of the spermidine concentration required to fully restore cell proliferation upon treatment with DFMO: 10 to 100 fold
[3]; except L1210 and, to a lesser degree, MCF-7 cells
  effect of the inhibitor alone on cell proliferation: little or no effect
